Measurements reported in patent publication US8653263B2 (Janssen Pharmaceutica, priority 2009, dated 2014).

What follows are compounds tested against human orexin-2 receptor (Homo sapiens (Human), UniProt O43614) (assay: Human orexin 2 receptor radioligand binding ([3H]-EMPA competition)). Conditions: HEK293 cells stably expressing human orexin-2 receptor; [3H]-EMPA 5 nM final; apparent Ki=IC50/(1+C/Kd), Kd=2 nM; read-out: OR 2 Ki.
Chain of human orexin-2 receptor (O43614 whole entry): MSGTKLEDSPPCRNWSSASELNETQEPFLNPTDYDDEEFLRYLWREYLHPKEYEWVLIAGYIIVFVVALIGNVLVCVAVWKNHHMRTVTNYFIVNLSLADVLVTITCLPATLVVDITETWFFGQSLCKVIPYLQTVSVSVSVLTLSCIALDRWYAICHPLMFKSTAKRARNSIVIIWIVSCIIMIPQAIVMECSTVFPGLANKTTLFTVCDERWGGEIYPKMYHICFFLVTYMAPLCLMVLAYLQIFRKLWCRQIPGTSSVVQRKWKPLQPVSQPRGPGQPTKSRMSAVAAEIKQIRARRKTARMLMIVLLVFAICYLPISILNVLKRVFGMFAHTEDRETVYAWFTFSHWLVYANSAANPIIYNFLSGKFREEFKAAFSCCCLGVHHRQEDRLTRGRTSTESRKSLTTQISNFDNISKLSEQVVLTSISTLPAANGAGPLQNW

First: O=C(c1ccccc1Br)N1CC2CN(c3cnc4ccccc4n3)CC2C1 (stereo not shown) [Example 42, 2-{5-[(2-Bromophenyl)carbonyl]hexahydropyrrolo[3,4-c]pyrrol-2(1H)-yl}quinoxaline]
Second: Cc1nc2ccccc2nc1N1CC2CN(C(=O)c3ccccc3-c3cccs3)CC2C1 (stereo not shown) [Example 65, 2-Methyl-3-{5-[(2-thiophen-2-ylphenyl)carbonyl]hexahydropyrrolo[3,4-c]pyrrol-2(1H)-yl}quinoxaline]
The Ki of the first is 2.7-fold higher: 616 nM for the first, 228 nM for the second.

Going from `Cc1cc(C)nc(N2CC3CN(C(=O)c4ccccc4-c4cccs4)CC3C2)n1` (stereo not shown) [Example 43, 2-(4,6-Dimethylpyrimidin-2-yl)-5-[(2-thiophen-2-ylphenyl)carbonyl]octahydro-pyrrolo[3,4-c]pyrrole] to `Cc1cnc(C)c(N2CC3CN(C(=O)c4ccccc4-c4cccs4)CC3C2)n1` (stereo not shown) [Example 63, 2-(3,6-Dimethylpyrazin-2-yl)-5-[(2-thiophen-2-ylphenyl)carbonyl]octahydro-pyrrolo[3,4-c]pyrrole], the Ki rises from 7 nM to 44 nM (6.3-fold).

Going from `Cc1cc(C)nc(N2CC3CN(C(=O)c4ccccc4-c4ccccc4)CC3C2)n1` (stereo not shown) [Example 44, 2-(Biphenyl-2-ylcarbonyl)-5-(4,6-dimethylpyrimidin-2-yl)octahydropyrrolo[3,4-c]pyrrole] to `Cc1cc(C)nc(N2CC3CN(C(=O)c4ccccc4-c4cccc(F)c4)CC3C2)n1` (stereo not shown) [Example 52, 2-(4,6-Dimethylpyrimidin-2-yl)-5-[(3′-fluorobiphenyl-2-yl)carbonyl]octahydro-pyrrolo[3,4-c]pyrrole], the Ki falls from 142 nM to 65 nM (2.2-fold).

First: COc1ccnc(N2CC3CN(C(=O)c4ccccc4-c4cccs4)CC3C2)n1 (stereo not shown) [Example 45, 2-(4-Methoxypyrimidin-2-yl)-5-[(2-thiophen-2-ylphenyl)carbonyl]octahydro-pyrrolo[3,4-c]pyrrole]
Second: COc1ccnc(N2CC3CN(C(=O)c4cccc5ccccc45)CC3C2)n1 (stereo not shown) [Example 58, 2-(4-Methoxypyrimidin-2-yl)-5-(naphthalen-1-ylcarbonyl)octahydropyrrolo[3,4-c]pyrrole]
The Ki of the first is 6.3-fold lower: 36 nM for the first, 227 nM for the second. The first binds more tightly here.

Going from `O=C(c1ccccc1-c1cccs1)N1CC2CN(c3nc4ccc(F)cc4s3)CC2C1` (stereo not shown) [Example 46, 6-Fluoro-2-{5-[(2-thiophen-2-ylphenyl)carbonyl]hexahydropyrrolo[3,4-c]pyrrol-2(1H)-yl}-1,3-benzothiazole] to `O=C(c1ccccc1-c1cccs1)N1CC2CN(c3nccc(-c4cn[nH]c4)n3)CC2C1` (stereo not shown) [Example 62, 2-[4-(1H-Pyrazol-4-yl)pyrimidin-2-yl]-5-[(2-thiophen-2-ylphenyl)carbonyl]octahydro-pyrrolo[3,4-c]pyrrole], the Ki falls from 132 nM to 42 nM (3.1-fold).

Going from `Cc1cc(C)nc(N2CC3CN(C(=O)c4c(C)ccc5ccccc45)CC3C2)n1` (stereo not shown) [Example 47, 2-(4,6-Dimethylpyrimidin-2-yl)-5-[(2-methylnaphthalen-1-yl)carbonyl]octahydro-pyrrolo[3,4-c]pyrrole] to `Cc1ccnc(N2CC3CN(C(=O)c4c(C)ccc5ccccc45)CC3C2)n1` (stereo not shown) [Example 50, 2-[(2-Methylnaphthalen-1-yl)carbonyl]-5-(4-methylpyrimidin-2-yl)octahydro-pyrrolo[3,4-c]pyrrole], the Ki rises from 38 nM to 215 nM (5.7-fold). The first binds more tightly here.

`Cc1ccnc(N2CC3CN(C(=O)c4ccccc4-c4cccc(F)c4)CC3C2)n1` (stereo not shown) [Example 48, 2-[(3′-Fluorobiphenyl-2-yl)carbonyl]-5-(4-methylpyrimidin-2-yl)octahydro-pyrrolo[3,4-c]pyrrole] and `COc1ccnc(N2CC3CN(C(=O)c4ccccc4-c4cccc(F)c4)CC3C2)n1` (stereo not shown) [Example 51, 2-[(3′-Fluorobiphenyl-2-yl)carbonyl]-5-(4-methoxypyrimidin-2-yl)octahydro-pyrrolo[3,4-c]pyrrole] are within 1.5-fold of each other in Ki: 716 nM for the first, 644 nM for the second.

Compared with `COc1ccnc(N2CC3CN(C(=O)c4c(C)ccc5ccccc45)CC3C2)n1` (stereo not shown) [Example 49, 2-(4-Methoxypyrimidin-2-yl)-5-[(2-methylnaphthalen-1-yl)carbonyl]octahydro-pyrrolo[3,4-c]pyrrole], `COc1ccnc(N2CC3CN(C(=O)c4c(OC)ccc5ccccc45)CC3C2)n1` (stereo not shown) [Example 60, 2-[(2-Methoxynaphthalen-1-yl)carbonyl]-5-(4-methoxypyrimidin-2-yl)octahydropyrrolo[3,4-c]pyrrole] is 2.2-fold higher in Ki: 78 nM for the first, 173 nM for the second.

Going from `Cc1cc(C)nc(N2CC3CN(C(=O)c4ccccc4F)CC3C2)n1` (stereo not shown) [Example 53, [5-(4,6-Dimethyl-pyrimidin-2-yl)-hexahydro-pyrrolo[3,4-c]pyrrol-2-yl]-(2-fluoro-phenyl)-methanone] to `Cc1cc(C)nc(N2CC3CN(C(=O)c4ccccc4-n4cccn4)CC3C2)n1` (stereo not shown) [Example 67, 2-(4,6-Dimethylpyrimidin-2-yl)-5-{[2-(1H-pyrazol-1-yl)phenyl]carbonyl}octahydro-pyrrolo[3,4-c]pyrrole], the Ki falls from 5000 nM to 119 nM (42-fold). The second binds more tightly here.

`COc1ccnc(N2CC3CN(C(=O)c4ccccc4-c4ccc(C)cc4)CC3C2)n1` (stereo not shown) [Example 54, 2-(4-Methoxypyrimidin-2-yl)-5-[(4′-methylbiphenyl-2-yl)carbonyl]octahydro-pyrrolo[3,4-c]pyrrole] and `COc1ccnc(N2CC3CN(C(=O)c4ccccc4-c4cccc(Cl)c4)CC3C2)n1` (stereo not shown) [Example 55, 2-[(3′-Chlorobiphenyl-2-yl)carbonyl]-5-(4-methoxypyrimidin-2-yl)octahydro-pyrrolo[3,4-c]pyrrole] are within 1.5-fold of each other in Ki: 769 nM for the first, 744 nM for the second.

Going from `CCOc1ccc2ccccc2c1C(=O)N1CC2CN(c3nccc(OC)n3)CC2C1` (stereo not shown) [Example 56, 2-[(2-Ethoxynaphthalen-1-yl)carbonyl]-5-(4-methoxypyrimidin-2-yl)octahydropyrrolo[3,4-c]pyrrole] to `CCOc1ccccc1C(=O)N1CC2CN(c3nccc(OC)n3)CC2C1` (stereo not shown) [Example 59, 2-[(2-Ethoxyphenyl)carbonyl]-5-(4-methoxypyrimidin-2-yl)octahydropyrrolo[3,4-c]pyrrole], the Ki rises from 80 nM to 778 nM (9.7-fold). The first binds more tightly here.

`COc1ccnc(N2CC3CN(C(=O)c4ccc(F)c5ccccc45)CC3C2)n1` (stereo not shown) [Example 57, 2-[(4-Fluoronaphthalen-1-yl)carbonyl]-5-(4-methoxypyrimidin-2-yl)octahydro-pyrrolo[3,4-c]pyrrole] and `O=C(c1ccccc1-c1ccccc1)N1CC2CN(c3nccc(-c4cn[nH]c4)n3)CC2C1` (stereo not shown) [Example 61, 2-(Biphenyl-2-ylcarbonyl)-5-[4-(1H-pyrazol-4-yl)pyrimidin-2-yl]octahydro-pyrrolo[3,4-c]pyrrole] are within 1.5-fold of each other in Ki: 167 nM for the first, 224 nM for the second.

`Cc1cnc(N2CC3CN(C(=O)c4ccccc4-c4ccccc4)CC3C2)c(C)n1` (stereo not shown) [Example 64, 2-(Biphenyl-2-ylcarbonyl)-5-(3,5-dimethylpyrazin-2-yl)octahydropyrrolo[3,4-c]pyrrole] and `Cc1nc2ccccc2nc1N1CC2CN(C(=O)c3ccccc3-c3ccccc3)CC2C1` (stereo not shown) [Example 66, 2-[5-(Biphenyl-2-ylcarbonyl)hexahydropyrrolo[3,4-c]pyrrol-2(1H)-yl]-3-methylquinoxaline] are within 1.5-fold of each other in Ki: 579 nM for the first, 449 nM for the second.

`COc1cc(OC)nc(N2CC3CN(C(=O)c4c(F)cccc4-c4ncccn4)CC3C2)n1` (stereo not shown) [Example 68, 2-(4,6-Dimethoxypyrimidin-2-yl)-5-[(2-fluoro-6-pyrimidin-2-ylphenyl)carbonyl]octahydropyrrolo[3,4-c]pyrrole] and `Cc1cc(C)nc(N2CC3CN(C(=O)c4ccccc4-c4ccccn4)CC3C2)n1` (stereo not shown) [Example 69, 2-(4,6-Dimethylpyrimidin-2-yl)-5-[(2-pyridin-2-ylphenyl)carbonyl]octahydro-pyrrolo[3,4-c]pyrrole] are within 1.5-fold of each other in Ki: 13 nM for the first, 17 nM for the second.
